Results as given in patent US6914045B2, “Glycopeptide antibiotics” (Wyeth Holdings Corporation, priority 2001, dated 2005).
≈ marks a conversion by molar mass, not a printed value.

Columns and labels:
Assay in all cases: in vitro antibacterial evaluation, MIC by broth dilution
Assay type in all cases: cell-based
Escherichia coli = conditions: 18 hours at 35° C.
Staphylococcus sp. = conditions: broth dilution, 18 hours at 35° C.
In short: (§1)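 Test organisms, which included recent clinical isolates resistant to methicillin, penicillin and/or vancomycin, were inoculated at 5×10^5 CFU/mL into Muller-Hinton II […] containing antibiotic at 64-0.06 μg/mL. Minimum inhibitory concentrations were then read as the lowest level inhibiting growth.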

Enterococcus sp. = conditions: broth dilution, 18 hours at 35° C.
In short: as §1

Streptococcus sp. = conditions: broth dilution, 18 hours at 35° C.
In short: as §1

- MIC Escherichia coli (ATCC 25922) (Escherichia coli): >128 µg/mL
- MIC Escherichia coli (GC 4559) (Escherichia coli): >128 µg/mL
- MIC Escherichia coli (GC 4560) (Escherichia coli): 2 µg/mL (≈ 1.34 µM)
- MIC Coagulase Negative Staphylococcus (GC 4547) (Staphylococcus sp.): 2 µg/mL (≈ 1.34 µM)
- MIC Coagulase Negative Staphylococcus (GC 4548) (Staphylococcus sp.): 0.5 µg/mL (≈ 0.335 µM)
- MIC Coagulase Negative Staphylococcus (GC 4549) (Staphylococcus sp.): 0.5 µg/mL (≈ 0.335 µM)
- MIC Coagulase Negative Staphylococcus (GC 4551) (Staphylococcus sp.): 1 µg/mL (≈ 0.67 µM)
- MIC Coagulase Negative Staphylococcus (GC 6257) (Staphylococcus sp.): 0.5 µg/mL (≈ 0.335 µM)
- MIC Staphylococcus aureus (ATCC 29213) (Staphylococcus sp.): 1 µg/mL (≈ 0.67 µM)
- MIC Staphylococcus aureus (GC 1131) (Staphylococcus sp.): 2 µg/mL (≈ 1.34 µM)
- MIC Staphylococcus aureus (GC 3051) (Staphylococcus sp.): 2 µg/mL (≈ 1.34 µM)
- MIC Staphylococcus aureus (GC 3053) (Staphylococcus sp.): 2 µg/mL (≈ 1.34 µM)
- MIC Staphylococcus aureus (GC 4541) (Staphylococcus sp.): 2 µg/mL (≈ 1.34 µM)
- MIC Staphylococcus aureus (GC 4542) (Staphylococcus sp.): 2 µg/mL (≈ 1.34 µM)
- MIC Staphylococcus aureus (GC 4544) (Staphylococcus sp.): 2 µg/mL (≈ 1.34 µM)
- MIC Staphylococcus aureus (GC 4545) (Staphylococcus sp.): 2 µg/mL (≈ 1.34 µM)
- MIC Staphylococcus aureus-SMITH (GC 4543) (Staphylococcus sp.): 1 µg/mL (≈ 0.67 µM)
- MIC Staphylococcus aureus (ATCC 29213) (Staphylococcus sp.; strain ATCC 29213): 1 µg/mL (≈ 0.67 µM)
- MIC Staphylococcus aureus (GC 1131) (Staphylococcus sp.; strain GC 1131): 2 µg/mL (≈ 1.34 µM)
- MIC Staphylococcus aureus (GC 3051) (Staphylococcus sp.; strain GC 3051): 2 µg/mL (≈ 1.34 µM)
- MIC Staphylococcus aureus (GC 3053) (Staphylococcus sp.; strain GC 3053): 2 µg/mL (≈ 1.34 µM)
- MIC Staphylococcus aureus (GC 4541) (Staphylococcus sp.; strain GC 4541): 2 µg/mL (≈ 1.34 µM)
- MIC Staphylococcus aureus (GC 4542) (Staphylococcus sp.; strain GC 4542): 2 µg/mL (≈ 1.34 µM)
- MIC Staphylococcus aureus-SMITH (GC 4543) (Staphylococcus sp.; strain GC 4543): 1 µg/mL (≈ 0.67 µM)
- MIC Staphylococcus aureus (GC 4544) (Staphylococcus sp.; strain GC 4544): 2 µg/mL (≈ 1.34 µM)
- MIC Staphylococcus aureus (GC 4545) (Staphylococcus sp.; strain GC 4545): 2 µg/mL (≈ 1.34 µM)
- MIC Coagulase Negative Staphylococcus (GC 4547) (Staphylococcus sp.; strain GC 4547): 2 µg/mL (≈ 1.34 µM)
- MIC Coagulase Negative Staphylococcus (GC 4548) (Staphylococcus sp.; strain GC 4548): 0.5 µg/mL (≈ 0.335 µM)
- MIC Coagulase Negative Staphylococcus (GC 4549) (Staphylococcus sp.; strain GC 4549): 0.5 µg/mL (≈ 0.335 µM)
- MIC Coagulase Negative Staphylococcus (GC 4551) (Staphylococcus sp.; strain GC 4551): 1 µg/mL (≈ 0.67 µM)
- MIC Coagulase Negative Staphylococcus (GC 6257) (Staphylococcus sp.; strain GC 6257): 0.5 µg/mL (≈ 0.335 µM)
- MIC Enterococcus avium (GC 4558) (Enterococcus sp.): 4 µg/mL (≈ 2.68 µM)
- MIC Enterococcus faecalis (ATCC 29212) (Enterococcus sp.): 4 µg/mL (≈ 2.68 µM)
- MIC Enterococcus faecalis (GC 2242) (Enterococcus sp.): 4 µg/mL (≈ 2.68 µM)
- MIC Enterococcus faecalis (GC 2691) (Enterococcus sp.): 8 µg/mL (≈ 5.36 µM)
- MIC Enterococcus faecalis (GC 3059) (Enterococcus sp.): 4 µg/mL (≈ 2.68 µM)
- MIC Enterococcus faecalis (GC 4552) (Enterococcus sp.): 4 µg/mL (≈ 2.68 µM)
- MIC Enterococcus faecalis (GC 4553) (Enterococcus sp.): 4 µg/mL (≈ 2.68 µM)
- MIC Enterococcus faecalis (GC 4554) (Enterococcus sp.): 4 µg/mL (≈ 2.68 µM)
- MIC Enterococcus faecalis (GC 6189) (Enterococcus sp.): 4 µg/mL (≈ 2.68 µM)
- MIC Enterococcus faecium (GC 2243) (Enterococcus sp.): 4 µg/mL (≈ 2.68 µM)
- MIC Enterococcus faecium (GC 4556) (Enterococcus sp.): 4 µg/mL (≈ 2.68 µM)
- MIC Enterococcus faecium (GC 4557) (Enterococcus sp.): 4 µg/mL (≈ 2.68 µM)
- MIC Enterococcus faecalis (ATCC 29212) (Enterococcus sp.; inoculum 5×10^5 CFU/mL, strain ATCC 29212): 4 µg/mL (≈ 2.68 µM)
- MIC Enterococcus faecalis (GC 2242) (Enterococcus sp.; inoculum 5×10^5 CFU/mL, strain GC 2242): 4 µg/mL (≈ 2.68 µM)
- MIC Enterococcus faecium (GC 2243) (Enterococcus sp.; inoculum 5×10^5 CFU/mL, strain GC 2243): 4 µg/mL (≈ 2.68 µM)
- MIC Enterococcus faecalis (GC 2691) (Enterococcus sp.; inoculum 5×10^5 CFU/mL, strain GC 2691): 8 µg/mL (≈ 5.36 µM)
- MIC Enterococcus faecalis (GC 3059) (Enterococcus sp.; inoculum 5×10^5 CFU/mL, strain GC 3059): 4 µg/mL (≈ 2.68 µM)
- MIC Enterococcus faecalis (GC 4552) (Enterococcus sp.; inoculum 5×10^5 CFU/mL, strain GC 4552): 4 µg/mL (≈ 2.68 µM)
- MIC Enterococcus faecalis (GC 4553) (Enterococcus sp.; inoculum 5×10^5 CFU/mL, strain GC 4553): 4 µg/mL (≈ 2.68 µM)
- MIC Enterococcus faecalis (GC 4554) (Enterococcus sp.; inoculum 5×10^5 CFU/mL, strain GC 4554): 4 µg/mL (≈ 2.68 µM)
- MIC Enterococcus faecium (GC 4556) (Enterococcus sp.; inoculum 5×10^5 CFU/mL, strain GC 4556): 4 µg/mL (≈ 2.68 µM)
- MIC Enterococcus faecium (GC 4557) (Enterococcus sp.; inoculum 5×10^5 CFU/mL, strain GC 4557): 4 µg/mL (≈ 2.68 µM)
- MIC Enterococcus avium (GC 4558) (Enterococcus sp.; inoculum 5×10^5 CFU/mL, strain GC 4558): 4 µg/mL (≈ 2.68 µM)
- MIC Enterococcus faecalis (GC 6189) (Enterococcus sp.; inoculum 5×10^5 CFU/mL, strain GC 6189): 4 µg/mL (≈ 2.68 µM)
- MIC Streptococcus agalactiae (GC 4564) (Streptococcus sp.): <0.12 µg/mL
- MIC Streptococcus pneumoniae (ATCC 6301) (Streptococcus sp.): <0.12 µg/mL
- MIC Streptococcus pneumoniae (GC 1894) (Streptococcus sp.): <0.12 µg/mL
- MIC Streptococcus pneumoniae (GC 4565) (Streptococcus sp.): <0.12 µg/mL
- MIC Streptococcus pyogenes (GC 4563) (Streptococcus sp.): <0.12 µg/mL
- MIC Streptococcus pneumoniae (ATCC 6301) (Streptococcus sp.; inoculum 5×10^5 CFU/mL, strain ATCC 6301): <0.12 µg/mL
- MIC Streptococcus pneumoniae (GC 1894) (Streptococcus sp.; inoculum 5×10^5 CFU/mL, strain GC 1894): <0.12 µg/mL
- MIC Streptococcus pyogenes (GC 4563) (Streptococcus sp.; inoculum 5×10^5 CFU/mL, strain GC 4563): <0.12 µg/mL
- MIC Streptococcus agalactiae (GC 4564) (Streptococcus sp.; inoculum 5×10^5 CFU/mL, strain GC 4564): <0.12 µg/mL
- MIC Streptococcus pneumoniae (GC 4565) (Streptococcus sp.; inoculum 5×10^5 CFU/mL, strain GC 4565): <0.12 µg/mL
SMILES: CC(c1ccccc1)C1NC(=O)CNC(=O)C(CO)NC(=O)C(C(O)C2CNC(=N)N2C2OC(CO)C(O)C(O)C2O)NC(=O)C(C(O)C2CNC(=N)N2)NC(=O)C(Cc2ccc(OC3OC(CO)C(OC4OC(CO)C(O)C(OCc5ccc(OCc6ccccc6)cc5)C4O)C(O)C3O)cc2)NC1=O (stereo not drawn) [Example 231c, Cyclo[glycyl-β-methylphenylalanyl-O-[4-O-[3-O-[4-(phenylmethoxy)benzyl]hexopyranosyl]-hexopyranosyl]tyrosyl-3-(2-iminoimidazolidin-4-yl)seryl-3-(3-hexopyranosyl-2-iminoimidazolidin-4-yl)serylseryl]]
- MIC Staphylococcus haemolyticus (GC 4546) (Staphylococcus sp.): 1 µg/mL (≈ 0.67 µM)
- MIC Staphylococcus haemolyticus (GC 4546) (Staphylococcus sp.; strain GC 4546): 1 µg/mL (≈ 0.67 µM)
